Molecular target: T1, BRD9 (Homo sapiens, UniProt Q9H8M2)
T1 sequence (Q9H8M2 1-597): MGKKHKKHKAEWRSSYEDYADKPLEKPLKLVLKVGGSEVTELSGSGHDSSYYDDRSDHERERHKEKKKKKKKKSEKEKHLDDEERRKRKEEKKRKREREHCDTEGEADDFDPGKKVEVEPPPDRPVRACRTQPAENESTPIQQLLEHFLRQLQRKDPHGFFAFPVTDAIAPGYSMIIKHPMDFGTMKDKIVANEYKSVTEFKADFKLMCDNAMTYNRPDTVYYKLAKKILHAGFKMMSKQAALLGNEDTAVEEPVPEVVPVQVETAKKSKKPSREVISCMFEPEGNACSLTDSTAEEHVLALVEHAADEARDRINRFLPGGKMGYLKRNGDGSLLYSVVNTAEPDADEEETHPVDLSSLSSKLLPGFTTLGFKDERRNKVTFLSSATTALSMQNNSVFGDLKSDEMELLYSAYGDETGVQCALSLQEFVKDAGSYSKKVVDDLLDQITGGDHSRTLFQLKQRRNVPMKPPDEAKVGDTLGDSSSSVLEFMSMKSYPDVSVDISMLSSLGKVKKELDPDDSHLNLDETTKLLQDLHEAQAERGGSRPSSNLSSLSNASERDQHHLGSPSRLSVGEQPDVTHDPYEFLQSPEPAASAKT
Experiment: HiBiT BRD9 degradation assay in 293T.166 (BRD9-HiBiT) cells
Format: cell-based
Set-up: endogenously expressing BRD9 with HiBiT fusion tag via CRISPR; host or cells: 293T.166 (BRD9-HiBiT), also expressing LgBiT ectopically
Conditions: Table 1; 293T.166 cells, 2.0 hours; class symbols; read-out: HiBiT-Degradation 293T.166 BRD9 2.0 hours (DC50)
Description: Selected compounds were tested in a BRD9 degradation assay using the HiBit Method.
Dulbecco's modified Eagle medium (DMEM) without phenol red and fetal bovine serum (FBS) were purchased from Gibco (Grand Island, N.Y., USA). Nano-Glo® HiBiT Lytic Assay System was purchased from Promega (Madison, Wis., USA). 293T.166 (BRD9-HiBiT) cell line, endogenously expressing BRD9 with HiBiT fusion tag via CRISPR and ectopically expressing LgBiT tag, was purchased from Promega (Madison, Wis., USA). 293T.167 (BRD7-HiBiT) cell line, endogenously expressing BRD7 with HiBiT fusion tag via CRISPR and ectopically expressing LgBiT tag, was purchased from Promega (Madison, Wis., USA). 293T.92 (BRD4-HiBiT) cell line, endogenously expressing BRD4 with HiBiT fusion tag via CRISPR and ectopically expressing LgBiT tag, was generated in-house. Cell culture flasks and 384-well microplates were acquired from VWR (Radnor, Pa., USA).
BRD9 degradation was determined based on quantification of luminescent signal using Nano-Glo® HiBiT Lytic Assay kit. Test compounds were added to the 384-well plate from a top concentration of 10 μM with 11 points, half log titration in duplicates. 293T.166 cells were added into 384-well plates at a cell density of 10,000 cells per well. The plates were kept at 37° C. with 5% CO2 for 2 hours. BRD7 and BRD4 degradation was similarly determined with 293T.167 cells and 293T.92 cells, respectively. The cells treated in the absence of the test compound were the negative control and the cells without Nano-Glo® HiBiT Lytic reagent were the positive control. After 2-hour incubation, Nano-Glo® HiBiT Lytic Assay reagents were added to the cells. Luminescence was acquired on EnVision™ Multilabel Reader (PerkinElmer, Santa Clara, Calif., USA).

Row | SMILES | DC50
1 | COc1cc(-c2cn(C)c(=O)c3[nH]ncc23)cc(Cl)c1CN1CCC(CC(=O)N2CCC(c3ccc(NC4CCC(=O)NC4=O)cc3)CC2)CC1 (stereo not shown) [Compound 43] | < 100 nM
2 | COc1cc(-c2cn(C)c(=O)c3cnccc23)cc(Cl)c1CN1CCC(CC(=O)N2CCC(c3ccc(NC4CCC(=O)NC4=O)cc3)CC2)CC1 (stereo not shown) [Compound 44] | < 100 nM
3 | COc1cc(-c2cn(C)c(=O)c3[nH]ncc23)cc(OC)c1C(=O)N1CCN(C(=O)CN2CCC(c3ccc(NC4CCC(=O)NC4=O)cc3)CC2)CC1 (stereo not shown) [Compound 46, 3-[4-[1-[2-[4-[2,6-dimethoxy-4-(6-methyl-7-oxo-1H-pyrazolo[3,4-c]pyridin-4-yl)benzoyl]piperazin-1-yl]-2-oxo-ethyl]-4-piperidyl]anilino]piperidine-2,6-dione] | < 100 nM
4 | COc1cc(-c2cn(C)c(=O)c3[nH]ncc23)cc(F)c1C(=O)N1CCN(C(=O)CN2CCC(c3ccc(NC4CCC(=O)NC4=O)cc3)CC2)CC1 (stereo not shown) [Compound 47] | < 100 nM
5 | COc1cc(-c2cn(C)c(=O)c3[nH]ncc23)cc(F)c1CN1CCN(C(=O)CC2CCN(c3ccc(NC4CCC(=O)NC4=O)cc3)CC2)CC1 (stereo not shown) [Compound 49, 3-[4-[4-[2-[4-[[2-fluoro-6-methoxy-4-(6-methyl-7-oxo-1H-pyrazolo[3,4-c]pyridin-4-yl)phenyl]methyl]piperazin-1-yl]-2-oxo-ethyl]-1-piperidyl]anilino]piperidine-2,6-dione] | < 100 nM
6 | COc1cc(-c2cn(C)c(=O)c3[nH]ncc23)cc(OC)c1CN1CCN(C(=O)CC2CCN(c3ccc(NC4CCC(=O)NC4=O)cc3C(F)(F)F)CC2)CC1 (stereo not shown) [Compound 52, 3-[4-[4-[2-[4-[[2,6-dimethoxy-4-(6-methyl-7-oxo-1H-pyrazolo[3,4-c]pyridin-4-yl)phenyl]methyl]piperazin-1-yl]-2-oxo-ethyl]-1-piperidyl]-3-(trifluoromethyl)anilino]piperidine-2,6-dione] | < 100 nM
7 | COc1cc(-c2cn(C)c(=O)c3[nH]ncc23)cc(Cl)c1CN1CCN(C(=O)CC2CCN(c3ccc(NC4CCC(=O)NC4=O)cc3C(F)(F)F)CC2)CC1 (stereo not shown) [Compound 53] | < 100 nM
8 | COc1cc(-c2cn(C)c(=O)c3cnccc23)cc(OC)c1CN1CCN(C(=O)CC2CCN(c3ccc(NC4CCC(=O)NC4=O)cc3C(F)(F)F)CC2)CC1 (stereo not shown) [Compound 54] | < 100 nM

The remaining lines, values ahead:

Row | DC50 | SMILES
9 | < 100 nM | COc1cc(-c2cn(C)c(=O)c3[nH]ncc23)cc(OC)c1CN1CCN(CCCC(=O)N2CCC(c3ccc(NC4CCC(=O)NC4=O)cc3)CC2)CC1 (stereo not shown) [Compound 40]
10 | < 100 nM | COc1cc(-c2cn(C)c(=O)c3[nH]ncc23)cc(OC)c1CN1CCN(C(=O)Cc2ccc(NC3CCC(=O)NC3=O)cc2F)CC1 (stereo not shown) [Compound 41, 3-[4-[2-[4-[[2,6-dimethoxy-4-(6-methyl-7-oxo-1H-pyrazolo[3,4-c]pyridin-4-yl)phenyl]methyl]piperazin-1-yl]-2-oxo-ethyl]-3-fluoro-anilino]piperidine-2,6-dione]
11 | < 100 nM | COc1cc(-c2cn(C)c(=O)c3[nH]ncc23)cc(Cl)c1CN1CCC(CC(=O)N2CCC(c3ccc(NC4CCC(=O)NC4=O)cc3)C(F)(F)C2)CC1 (stereo not shown) [Compound 45]
12 | 100 to 500 nM | Cn1cc(-c2cc(Cl)c(C(=O)N3CCN(C(=O)CN4CCC(c5ccc(NC6CCC(=O)NC6=O)cc5)CC4)CC3)cc2Cl)c2cn[nH]c2c1=O (stereo not shown) [Compound 48]
13 | < 100 nM | COc1cc(-c2cn(C)c(=O)c3[nH]ncc23)cc(OC)c1CN1CCN(C(=O)CC2CCN(c3ccc(NC4CCC(=O)NC4=O)cc3)CC2)CC1 (stereo not shown) [Compound 50]
14 | < 100 nM | Cn1cc(-c2ccc(CN3CCN(C(=O)CC4CCN(c5ccc(NC6CCC(=O)NC6=O)cc5)CC4)CC3)c(OC(F)(F)F)c2)c2cn[nH]c2c1=O (stereo not shown) [Compound 51]
15 | < 100 nM | COc1cc(-c2cn(C)c(=O)c3[nH]ncc23)cc(OC)c1CN1CCN(C(=O)CC2CCN(c3ccc(NC4CCC(=O)NC4=O)cc3C(F)(F)F)CC2)C(C)(C)C1 (stereo not shown) [Compound 57]
16 | < 100 nM | COc1cc(-c2cn(C)c(=O)c3[nH]ncc23)cc(OC)c1CN1CCN(C(=O)CC2CCN(c3ccc(NC4CCC(=O)NC4=O)cc3C(F)(F)F)CC2)CC12CC2 (stereo not shown) [Compound 58]

From US11691972B2, “Compounds for targeted degradation of BRD9” (C4 Therapeutics, Inc., priority 2020, dated 2023)
